Test results reported in US10561638B2, “Methods for treating dependence” (Biotie Therapies, Inc., priority 2007, dated 2020).
“Also recorded” adds a separate entry of the source.

Assays:
CD-1 (ICR) mice = test: Locomotor activity in mice, intraperitoneal; type: in vivo; conditions: i.p.; nepicastat 3-100, SKF-102698 30 and 100, cocaine 30 mg/kg
Text: Adult male CD-1 (ICR) mice (30-40 g on study day) were housed in groups of eight under a normal light/dark cycle with lights on between 0900 hr and 2100 hr. Food and water were allowed ad libitum. All animals were naive to drug treatment and behavioral testing. Each animal was only used once.
Locomotor activity was monitored in an automated 14 station activity monitoring system (San Diego Instrument Co.). Each station consisted of a clear perspex cage (25 cm×45 cm×20 cm; w×1×h) placed within a metal frame containing 3 photoemmitors and 3 photodetectors spaced equally along the length of the wall. The bottom of each cage was lightly covered in clean cedar bedding.
The mice were placed in the testing room at least 1 hr prior to testing. The mice were placed individually into one of the activity cages and allowed to explore for 30 min. […] Following a 60 minute pre-treatment period, motor activity was monitored for 180 minutes. Activity counts and ambulations (defined as a break of 2 consecutive photobeams) for each animal were recorded every 30 minutes.
A repeated measures two-way analysis of variance (ANOVA) was performed using the overall ranked data (nonparametric technique) to test for the overall effects of treatment, time interval and treatment by time interval interaction. […]

[1] = system: tissue norepinephrine and dopamine levels; test: Tissue catecholamines in Sprague-Dawley rats after 10 days b.i.d. dosing; type: in vivo; conditions: for dopamine/norepinephrine ratio vs vehicle: 2.0 and 6.2 mg/kg b.i.d., day 10, hydrochloride; for norepinephrine levels vs vehicle: 2.0 and 6.2 mg/kg
Procedure: Male Sprague-Dawley rats, weighing 180-200 grams, were fed an iodine deficient diet (Purina, 5891C, Lot 1478, 0.066±0.042 mg iodine/kg sample) ad libitum 14 days prior to treatment. Animals were weighed and randomly assigned to one of the following treatment groups (n=12 per group): nepicastat at 2.0 mg/kg, nepicastat at 6.2 mg/kg, Methimazole at 1 mg/kg, or vehicle at 1 ml/kg. Each group of rats was dosed orally in the evening and the following morning, approximately 12 hours apart, for 10 consecutive days.
At four hours after the second dose, on day 10, rats were anesthetized with halothane, decapitated, and the cortex, striatum, and mesenteric artery were harvested and weighed. Tissue samples were not harvested from the methimazole groups as they only served as positive controls for determination of thyroid function. The mesenteric artery, cortex, and striatum were immediately placed in 0.4 M iced perchloric acid and analyzed for norepinephrine and dopamine levels the same day using HPLC.
To statistically evaluate changes in T3 and T4 levels, a change from baseline was calculated from the day −3 time point. A non-parametric two-way within subject analysis of variance (ANOVA) was conducted. Also a one-way ANOVA was performed to detect if a significant difference from control occurred. Pairwise analyses between controls and each treatment group were carried out using Fisher's LSD strategy to control the experiment-wise error rate. For statistical analysis of catecholamine levels, a one-way ANOVA with factor DOSE was performed. Pairwise analyses between treated and controls at each dose were carried out using Fisher's LSD strategy to control the experiment-wise error rate.

[2] = system: aortic contractile response to phenylephrine; test: Aortic contractile response in vitro to phenylephrine after 21 days treatment; type: in vivo, spontaneously hypertensive rats; conditions: 10 mg/kg p.o. daily for 21 days
Text: The aortic contractile response in vitro to phenylephrine is impaired in spontaneously hypertensive rats (SHRs) relative to normotensive Wistar-Kyoto rats.

[3] = system: left ventricle norepinephrine and dopamine levels; test: Left ventricle catecholamines after two i.v. doses; type: in vivo, Sprague-Dawley rats; conditions: 15 mg/kg iv x2, left ventricle
Procedure: The purpose of this study was to determine the effects of intravenous administration of nepicastat (hereafter referred to as nepicastat) on the levels of dopamine and norepinephrine in the left ventricle in Sprague-Dawley rats. Animals received two intravenous (iv) administrations, 12 hours apart, of either vehicle (75% propylene glycol+25% DMSO; 1.0 ml/kg) or 15 mg/kg of nepicastat. Tissue norepinephrine and dopamine levels were measured six hours after the last compound administration.
Sixteen to 17 week old male Sprague-Dawley rats, weighing 300-400 grams, were allowed food and water ad libitum. Animals were weighed and randomly assigned, the afternoon before the study, to one of the following treatment groups (n=10 per group): vehicle (1.0 ml/kg) or nepicastat at 15 mg/kg.
Each rat was dosed iv in the tail vein the afternoon before harvest. The dosing was repeated 12 hours later the following morning. Six hours after the final administration rats were anesthetized with halothane, decapitated, and the left ventricle was rapidly harvested and weighed. The ventricle was placed in 1.0 ml iced 0.4 M perchloric acid. Tissues were immediately frozen in liquid nitrogen and stored at −70° C. Tissue dopamine and norepinephrine concentrations were assayed by high performance liquid chromatography using electrochemical detection.
A one-way analysis of variance (ANOVA) with a main effect for treatment was performed for norepinephrine. A Kruskal-Wallis was performed for dopamine and their ratio primarily due to heterogeneous variances among treatment groups. Subsequent pairwise comparisons between nepicastat treated rats and vehicle were performed using Fisher's LSD test. A Bonferroni adjustment was performed on all p-values to ensure an overall experiment-wise type 1 error rate of 5%.

[4] = Tolerability in patients with chronic heart failure; type: in vivo, human
Procedure: The dose at which the frequency of significant adverse events increased was 160 mg.

[5] = Toxicity studies in dogs (acute, 1-month); type: in vivo
Procedure: Dose selection was based on data from two studies with nepicastat. […] In a 1-month study, doses of 5, 20, or 80 mg/kg were administered to dogs orally once daily.

Row | Structure (SMILES) | total activity counts and ambulations vs vehicle (CD-1 (ICR) mice) | dopamine levels vs vehicle ([1]; all three tissues, 2.0 or 6.2 mg/kg) | dopamine/norepinephrine ratio vs vehicle ([1]; cortex (and striatum)) | norepinephrine levels vs vehicle ([1]; cortex) | norepinephrine levels vs vehicle ([1]; mesenteric artery) | dopamine/norepinephrine ratio vs vehicle ([1]; mesenteric artery) | norepinephrine levels vs vehicle ([1]; striatum) | phenylephrine responsiveness of aorta [2] | decrease in norepinephrine levels [3] | increase in dopamine levels [3] | increase in dopamine/norepinephrine ratio [3] | patients with symptomatic orthostatic hypotension ([4]; 160 mg) | patients who developed a rash ([4]; 160 mg for 8 days or longer) | tolerability ([4]; daily doses of 40, 80, 120 mg for 10 days) | dose at which the frequency of significant adverse events increased ([4]; human, in vivo) | 1-month toxicity ([5]; 80 mg/kg/day orally once daily) | acute toxicity ([5]; single oral dose of 400 mg/kg)
1 | Fc1cc(F)cc(Cn2cc[nH]c2=S)c1 [SKF-102698, reference compound] | no significant differences; also recorded: no significant effects | – | – | – | – | – | – | – | – | – | – | – | – | – | – | – | –
2 | Cl.NCc1c[nH]c(=S)n1[C@H]1CCc2c(F)cc(F)cc2C1 [nepicastat, (S)-5-Aminomethyl-1-(5,7-difluoro-1,2,3,4-tetrahydronaphth-2-yl)-2,3-dihydro-2-thioxo-1H-imidazole hydrochloride] | – | not significantly (p>0.05) different | not in the cortex; also recorded: not significantly (p>0.05) different | not significantly (p>0.05) different | significantly (p<0.05) lower | significantly raised; also recorded: significantly (p<0.05) higher | marginally (p<0.10) lower | restored phenylephrine responsiveness | 51% | 472% | 1117% | 6 of the 8 patients | Four of 8 patients | generally well tolerated | 160 mg | Clinical signs of toxicity were present | transient clinical signs of toxicity
